Results: paper PMC7228089, “Odiparcil, a potential glycosaminoglycans clearance therapy in mucopolysaccharidosis VI—Evidence from in vitro and in vivo models” (PLoS ONE, 2020)

Assays:
[1] = system: Bovine aortic endothelial cells; experiment: Secretion of [35S]-labelled sulphated GAG into culture medium of BAE cells; assay type: cell-based; conditions: for Mean CSGAG (%) of total secreted sulphated GAG / Mean HSGAG (%) of total secreted sulphated GAG: BAE cell culture media; for Mean CSGAG (%) of total secreted sulphated GAG: CSase ABC degradation; for Mean HSGAG (%) of total secreted sulphated GAG: Heparitinase II degradation; for Maximum stimulation of HSGAG secretion (fold over the base level): at 10 μM odiparcil
Protocol: GAG secreted into cell culture supernatant were analysed in Bovine aortic endothelial cells (ECACC 92010601), cultured in 6-well plates and incubated for 24 h in the presence of [^35S] sodium sulphate ([…]; 0.1% final concentration of DMSO). The culture supernatants were recovered and the unincorporated [^35S] was then removed by gel filtration on Sephadex G25 columns, the GAG being eluted in the column exclusion fraction (V0). A solution of cetylpyridinium chloride (0.1% final concentration) was added to the eluent in order to precipitate the GAG for 24 h at room temperature. The samples were then centrifuged and the supernatant was removed. The precipitate obtained was re-suspended in 2 M magnesium chloride and the GAG were precipitated with 5 volumes of 95% ethanol. After centrifugation, the alcoholic precipitates were re-suspended in 0.9% sodium chloride and then the radioactivity was measured.
In order to sort the GAG produced in the supernatants from cells in culture, the re-suspended alcoholic precipitates were treated with chondroitinase ABC (Proteus vulgaris) in a proportion of 0.5 mU/μL, for 3 h at 37°C. After inactivation of the enzyme for 3 min at 100°C, the undigested GAG were precipitated with 5 volumes of 95% ethanol, overnight at 4°C. After centrifugation, the alcoholic precipitates were re-suspended in 0.9% sodium chloride and then the radioactivity was measured on an aliquot fraction after addition of scintillation fluid in counting vials. GAG of heparan sulphate type were treated with heparinase II (Flavobacterium heparinum) in a proportion of 4 mU/μl, for 12 h at 30°C. After inactivation of the enzyme for 3 min at 100°C, the undigested GAG were precipitated with 5 volumes of 95% ethanol, overnight at 4°C. After centrifugation, the alcoholic precipitates were re-suspended in 0.9% sodium chloride and then the radioactivity was measured on an aliquot fraction after addition of scintillation fluid in counting vials.

[2] = system: MPS VI patient fibroblasts GM00538; experiment: Number of cultured cells (viability) during odiparcil treatment; assay type: cell-based, human; conditions: different odiparcil concentrations, growing and confluent conditions
Protocol: Primary skin fibroblasts from MPS VI patients GM00538 and GM02572 were obtained from the NIGMS Human Genetic Cell Repository at the Coriell Institute for Medical Research. Cell culturing was done according to the conditions provided by the Coriell Institute. For evaluation of the effect of odiparcil, cells were seeded in 96 well imaging plates (Falcon Cat N 353219) and two types of treatment were evaluated: i) prophylactic conditions—cells were treated with odiparcil before reaching confluence, 24 hours after plating; and ii) curative conditions—cells were treated with odiparcil after reaching confluence (10 days culturing). Cells were treated by odiparcil added to the culture media. This was done by replacing the initial culture media by media containing 0.1% DMSO with or without odiparcil (at 0.01, 0.03, 0.1, 0.3, 1, 3 and 10 μM). For treatment, the cells were incubated for 72 hours at 37°C, 5% CO2. All experimental conditions were performed in triplicate, i.e., 3 wells/test condition.
After odiparcil treatment as described above, culture media were removed to be used for dimethylmethylene blue (DMMB) assay and the cells were fixed in PFA 4%. Immunofluorescent staining was done following standard protocol comprising permeabilization with 0.1% Triton X 100, blocking with 2% NGS, staining with primary antibody and staining with secondary antibody and Hoechst (for nuclei visualization). […]

[3] = BAE cells, 24 h, [35S] sulphate

## Cc1cc(=O)oc2cc(O[C@@H]3SC[C@@H](O)[C@H](O)[C@H]3O)ccc12 [Odiparcil, 4-methyl-7-(5-thio-β-D-xylopyranosyloxy)-2 H-chromen-2-one]
[1]; odiparcil 0.1 µM
  Mean CSGAG (%) of total secreted sulphated GAG: 78.5%
  Mean HSGAG (%) of total secreted sulphated GAG: 34.5%
[1]; odiparcil 0.3 µM
  Mean CSGAG (%) of total secreted sulphated GAG: 83.5%
  Mean HSGAG (%) of total secreted sulphated GAG: 28.0%
[1]; odiparcil 1 µM
  Mean CSGAG (%) of total secreted sulphated GAG: 83.9%
  Mean HSGAG (%) of total secreted sulphated GAG: 16.0%
[1]; odiparcil 3 µM
  Mean CSGAG (%) of total secreted sulphated GAG: 82.5%
  Mean HSGAG (%) of total secreted sulphated GAG: 15.0%
[1]; odiparcil 10 µM
  Mean CSGAG (%) of total secreted sulphated GAG: 73.5%
  Mean HSGAG (%) of total secreted sulphated GAG: 19.5%
[1]; [3]
  Maximum CS-like GAGs (fold stimulation over the base level): 12.2 fold
  Maximum stimulation of HSGAG secretion (fold over the base level): 4.92 fold
[1]; BAE cells, 24 h, [35S] sulphate, achieved with 3 μM odiparcil
  Maximum stimulation of total GAG secretion (fold over the base level): 10.7 fold
[1]; BAE cells, 24 h, [35S] sulphate, listed as odiparcil
  Maximum stimulation of HSGAG secretion (fold over the base level): 4.9 fold
[2]
  Effect on viability of the cells (number of cells): no effect on viability of the cells
